Experiments:
[1] = test system: Pea Seedlings (cv. Dark Skin); test: Greenhouse trial: dry weight of seedlings; assay type: in vivo, peas; conditions: 1-triacontanol 0.1 mg/liter; for Dry wt.: sum of four plants
Experimental: (§1) In general, greenhouse trials were conducted as follows: eight to twelve seeds were sown per pot in Peat-Lite® Mix and received an average of 100 ml of water per day. After plants had the third true leaf (average), the various formulations were applied to the leaves as a fine mist at air temperatures listed in Table 1. Temperatures above 20° C., preferably 25°-30° C., are preferred.
(§2) The 1-triacontanol formulation most generally used consisted of a concentrate containing 5 mg of 1-triacontanol dissolved in 1 liter of acetone, with 20 ml of the concentrate being further dissolved to 1 liter with water having a pH between 8 and 10, with over a pH of 11 also being effective. The pH was adjusted with aqueous NaOH and the concentrate added just prior to spraying.
(§3) When other plant growth substances were added to the formulations, these were added either to the concentrate in the polar organic solvent or alternatively in the aqueous solution, depending on the solubility of the plant growth substance. All metal salts were added to the water used to spray the 1-triacontanol formulations. After spraying, preferably about four to nine days or more, plants were harvested with roots, and fresh weights were obtained. Plants were then dried in an oven, preferably at a temperature below 100° C., until constant weight was obtained, and dry weight values were obtained for each plot. Subtraction of the dry weights from the fresh weights gave the water uptake weights (water content) of each plot. The weights of the above mentioned seedlings were compared to the control weights to obtain the percent increases.
(§4) It is particularly advantageous to arrange each of the potted plants in size range categories corresponding to the number of replications used. For example, if five replications are employed, plants are divided into five size categories, normally measured by the height of the plants. Treatments are then assigned randomly within each block (size category). This removes the variation due to plant size for statistical purposes, as is well practiced in the art. The resulting data is analyzed using any appropriate means, which may include the least significant difference method (L.S.D. method), Duncan's multiple range test, as used here (Biometrics, 11: 1 (1955)), or other means.

[2] = test system: Beans (cv. Blue Lakes Stringless, Early Bird); test: Field trial: crop yield and seed size; assay type: in vivo; conditions: 100 seeds, CaCl2 5 mM, no IAA, 1-triacontanol 0.25 mg/liter
Experimental: (§5) Field trials were conducted in Northern Virginia on plots that were replicated at least five items. Plots consisted of single rows of plants in blocks of three or more plots, with treatments being assigned randomly within each block.
(§6) Plants were fertilized with the fertilizers described in Table 1, and sprayed at air temperatures listed in the same Table. Spraying was usually avoided under windy conditions to avoid drift.

[3] = test system: Sweet Corn (cv. Silver Queen, Early Sunglow, Jubilee); test: Field trial: crop yield and seed size; assay type: in vivo; conditions: for Percent increase in marketable yield: triacontanol 0.25 mg/l
Experimental: as §5, §6

[4] = test system: Cucumbers (cv. Straight Eight, Improved White Spine); test: Field trial: crop yield; assay type: in vivo; conditions: for Increase (crop yield) / Fresh wt. (crop yield): cv. Improved White Spine, TRIACON-10, 1-triacontanol 0.25 mg/liter, pH 9.8
Experimental: as §5, §6

[5] = test system: Field Corn (cv. Trojan TXS 94); test: Field trial: crop yield and seed size; assay type: in vivo; conditions: 1-triacontanol 0.25 mg/liter; for % increase (wt. of seed) / % increase (wt./15 ears) / Wt. of seed / Wt./15 ears: TRIACON-10, pH 10.4; for Percent increases (size of seeds) / Wt. of treated seed: cv. Trojan TXS 94, 1000 seeds; for Wt. of treated seed: control seed 252
Experimental: as §5
Plants were fertilized with the fertilizers described in Table 1, and sprayed at air temperatures listed in the same Table. Spraying was usually avoided under windy conditions to avoid drift. In the examples set forth herein, data were treated in a similar manner to those found in the greenhouse trials, with analysis of variance performed for each trial, and the use of a suitable statistical method for the analysis of results, preferably Duncan's multiple range test.

[6] = test system: Hybrid Sweet Corn Seedlings (cv. Silver Queen); test: Lengths of stems and total plant length of seedlings sprayed Day 7; assay type: in vivo; conditions: T = 1-triacontanol 0.1 mg/liter
[7] = test system: Hybrid Sweet Corn Seedlings (cv. Silver Queen); test: Greenhouse trial: dry weight and water uptake of seedlings after foliar spraying; assay type: in vivo
Experimental: as §1, §2, §3, §4

[8] = test system: Field Corn Seedlings (cv. Trojan TXS 94, Pioneer 3780, WF9 X Bear 38); test: as above; assay type: in vivo; conditions: cv. Trojan TXS 94, no metal salt, 1-triacontanol 0.1 mg/liter
Experimental: as §1, §2, §3, §4

[9] = CaCl2 50.0 mM, IAA 10 μM (Formulation 14)
[10] = 14-day old seedlings, 1-triacontanol 0.1 mg/liter alone, no plant growth substance (Formulation 2)
[11] = 14-day old seedlings, metal ion 9 mM (none in the last line) with 1-triacontanol 0.1 mg/liter, pH 8 to 10, Formulation 4
[12] = Formulation 4, 1-triacontanol 0.5 mg/liter, 10 mM CaCl2, pH 8.1, test seed first generation (sprayed) vs control first (not sprayed)
[13] = Formulation 4, 1-triacontanol 0.5 mg/liter, 10 mM CaCl2, pH 8.1, test seed second generation (first and second sprayed) vs control second (first and second not sprayed)
[14] = Formulation 4, 1-triacontanol 0.5 mg/liter, 10 mM CaCl2, pH 8.1, test seed second generation (first and second sprayed) vs control second (second was sprayed only)
[15] = Formulation 4, 1-triacontanol 0.5 mg/liter, 10 mM CaCl2, pH 8.1, test seed second generation (first was sprayed only) vs control second (first and second not sprayed)

## CCCCCCCCCCCCCCCCCCCCCCCCCCCCCCO [1-Triacontanol, 1-triacontanol]
[1]; CaCl2 0.0 mM, no IAA
  Percent increases (dry weight): -5%
[1]; CaCl2 0.0 mM, no IAA, control 0.83
  Dry wt.: 0.79 gm
[1]; CaCl2 1.0 mM, no IAA
  Percent increases (dry weight): +1%
  Dry wt.: 0.84 gm
[1]; CaCl2 3.0 mM, no IAA
  Percent increases (dry weight): -7%
  Dry wt.: 0.77 gm
[1]; CaCl2 5.0 mM, no IAA
  Percent increases (dry weight): +7%
  Dry wt.: 0.89 gm
[1]; CaCl2 10.0 mM, no IAA
  Percent increases (dry weight): +18%
  Dry wt.: 0.98 gm
[1]; CaCl2 15.0 mM, no IAA
  Percent increases (dry weight): +33%
  Dry wt.: 1.10 gm
[1]; [9]
  Percent increases (dry weight): +46%
  Dry wt.: 1.21 gm
[2]
  Percent increases (size of seeds): +54%
[2]; control seed 18.1
  Wt. of treated seed: 27.8 g
[3]; cv. Early Sunglow, CaCl2 10 mM, no IAA, pH 9.8
  Percent increase in marketable yield: +47%
[3]; cv. Early Sunglow, CaCl2 50 mM, IAA 10 μM, pH 9.8
  Percent increase in marketable yield: +20%
[3]; cv. Jubilee, CaCl2 10 mM, no IAA, pH 9.7
  Percent increase in marketable yield: +44%
[3]; cv. Jubilee, CaCl2 50 mM, IAA 10 μM, pH 9.7
  Percent increase in marketable yield: +31%
[3]; cv. Silver Queen, 500 seeds, CaCl2 9 mM, no IAA, 1-triacontanol 0.25 mg/liter
  Percent increases (size of seeds): +47%
[3]; cv. Silver Queen, 500 seeds, CaCl2 9 mM, no IAA, 1-triacontanol 0.25 mg/liter, control seed 29.7 g
  Wt. of treated seed: 43.8 g
[3]; cv. Silver Queen, CaCl2 10 mM, no IAA, pH 10.4
  Percent increase in marketable yield: +49%
[3]; cv. Silver Queen, CaCl2 50 mM, IAA 10 μM, pH 10.4
  Percent increase in marketable yield: +16%
[3]; cv. Silver Queen, previous year, three out of three trials
  Increases (field trial data for the previous year): 51-54%
[4]; CaCl2 5 mM
  Increase (crop yield): +88%
[4]; CaCl2 5 mM, control 9575 g
  Fresh wt. (crop yield): 17980 g
[4]; CaCl2 50 mM
  Fresh wt. (crop yield): 11725 g
  Increase (crop yield): +22%
[4]; cv. Straight Eight, previous year, pH 8.7, CaCl2 4.5 mM
  Increase over controls (crop yield): 101%
[5]; CaCl2 1 mM, no IAA
  % increase (wt. of seed): +27%
  % increase (wt./15 ears): +33%
  Percent increases (size of seeds): +18%
  Wt. of treated seed: 297 g
[5]; CaCl2 1 mM, no IAA, control 1740 g
  Wt. of seed: 2211 g
[5]; CaCl2 1 mM, no IAA, control 1777 g
  Wt./15 ears: 2356 g
[5]; CaCl2 3 mM, IAA 0.01 mM
  % increase (wt. of seed): +34%
  % increase (wt./15 ears): +46%
  Wt. of seed: 2342 g
  Wt./15 ears: 2950 g
  Percent increases (size of seeds): +27%
  Wt. of treated seed: 319 g
[6]
  Increase in length "a": 0%
  Increase in length "b": +15%
[6]; control 11.5 cm
  Length "a" (stem to the first leaf): 11.5 cm
[6]; control 25.0 cm
  Length "b" (total plant length): 28.8 cm
[7]; 1-triacontanol 0.1 mg/liter, Formulation 4, additive 9 mM (none in the last line)
  Increase in dry weight: +21%
[7]; [10]
  Increases, H2O uptake: +16%
  Increases, dry wt.: +20%
[7]; [11]
  % increase (dry weight): +21%
  % increase (water uptake): +16%
[7]; 14-day old seedlings, metal ion 9 mM (none in the last line) with 1-triacontanol 0.1 mg/liter, pH 8 to 10, Formulation 4, control 0.86 g
  Dry weight: 1.04 g
[7]; 14-day old seedlings, metal ion 9 mM (none in the last line) with 1-triacontanol 0.1 mg/liter, pH 8 to 10, Formulation 4, control 8.7 g
  Water uptake: 10.1 g
[7]; 14-day old seedlings, no metal salt, 1-triacontanol 0.1 mg/liter, Formulation 1 as printed
  Increases, H2O uptake: +16%
[7]; [12]
  Increases, H2O uptake: +41%
  Increases, dry wt.: +44%
[7]; [13]
  Increases, H2O uptake: +78%
  Increases, dry wt.: +80%
[7]; [14]
  Increases, H2O uptake: +46%
  Increases, dry wt.: +41%
[7]; [15]
  Increases, H2O uptake: +40%
  Increases, dry wt.: +44%
[7]; foliar, 0.1 ug/mL
  Increases, dry wt.: +20%
[8]; Formulation 4
  Dry wt. increase: -3%
[8]; Formulation 11
  Dry wt. increase: -8%
